From patent publication US6566374B1, “Method of treating or preventing microbial infections with loperamide” (priority 1998, dated 2003)

How the values were obtained:
Type in all cases: cell-based
[1] = tested on: Bacillus subtilis ATCC 6633; test: Nominal Inhibitory Concentration (spiral plater); conditions: 24 hrs BA 37° C.
Description: (§1) A broth, appropriate to the microorganism to be tested (see Table 1 below), was inoculated aseptically from a pure plate culture and then incubated as indicated in Table 1.
(§2) Following the correct incubation, the liquid culture was diluted in a sterile saline solution to give approximately 10^5 to 10^6 CFU/ml. The suspension was serially diluted and spread plates were prepared for each dilution so as to obtain an accurate CFU/ml value.
(§3) The spiral plater was prepared by passing one cupule of IMS followed by one cupule of sterile water through the plater with the valve open and vacuum pump on. With the spiral plater cam on “Linear Deposition”, the suspension of micoorganism to be tested was placed in a new cupule. The suspension was taken up, ensuring that the glass tube was full, and the organisms were then deposited in an even spiral onto agar plates.
(§4) The depth of the agar was measured on the plates and this value recorded. Negative control plates with no added active were produced in triplicate.
(§5) The spiral plater was washed with one cupule of IMS and one cupule of sterile deionised water in-between the inoculation of different microbial samples. Once the microbial inocula had dried, the spiral plater was washed and the cam changed to “Gradient Deposition”. The antimicrobial solution was deposited in a spiral gradient directly on top of the dried inoculated spiral. Loperamide hydrochloride was used at concentrations of 1% and 0.3% made up in 50% dimethyl sulphoxide.
(§6) The spiral plater was washed with one cupule of IMS and one of sterile deionised water in-between different antimicrobial solutions. The solutions were left to dry before being incubated, at 37° C. for 24 hr, +/−6 hr or 48 hr +/−6 hr for anaerobes (see Table 1).
(§7) Following incubation, the control plates were checked to have grown to the end of the spiral inoculum. Digital calipers were used to measure the distance between the inoculation point and the point where confluent growth starts. The distance value termed the Radial Advance was used to determine the Deposition Factor (DF). The NIC can be calculated from the following formula:
(§8) NIC=Nominal Inhibitory Concentration (e.g. ppm)
(§9) SC=Stock concentration of antimicrobial (e.g. ppm)
(§10) ha=height of agar in plate (mm)

[2] = tested on: Candida albicans NCYC 1363; test: Nominal Inhibitory Concentration (spiral plater); conditions: 24 hrs SDA 37° C.
Description: as §1, §2, §3, §4, §5, §6, §7, §8, §9, §10

[3] = tested on: Escherichia coli NCTC 8545; test: Nominal Inhibitory Concentration (spiral plater); conditions: 24 hrs BA 37° C.
Description: as §1, §2, §3, §4, §5, §6, §7, §8, §9, §10

[4] = tested on: Fusobacterium nucleatum NCTC 10562; test: Nominal Inhibitory Concentration (spiral plater); conditions: 48 hrs BA 37° C. (anaerobically)
Description: as §1, §2, §3, §4, §5, §6, §7, §8, §9, §10

[5] = tested on: Lactobacillus acidophillus NCTC 4505; test: Nominal Inhibitory Concentration (spiral plater); conditions: 24 hrs BA 37° C.
Description: as §1, §2, §3, §4, §5, §6, §7, §8, §9, §10

[6] = tested on: Micrococcus luteus NCIB 8166; test: Nominal Inhibitory Concentration (spiral plater); conditions: 24 hrs BA 37° C.
Description: as §1, §2, §3, §4, §5, §6, §7, §8, §9, §10

[7] = tested on: Propionibacterium acnes NCTC 737; test: Nominal Inhibitory Concentration (spiral plater); conditions: 48 hrs BA 37° C. anaerobically, loperamide hydrochloride 1% and 0.3% in 50% dimethyl sulphoxide
Description: as §1, §2, §3, §4, §5, §6, §7, §8, §9, §10

[8] = tested on: Pseudomonas aeruginosa ATCC 9027; test: Nominal Inhibitory Concentration (spiral plater); conditions: 24 hrs BA 37° C.
Description: as §1, §2, §3, §4, §5, §6, §7, §8, §9, §10

[9] = tested on: Pseudomonas cepacia ATCC 25416; test: Nominal Inhibitory Concentration (spiral plater); conditions: 24 hrs BA 37° C.
Description: as §1, §2, §3, §4, §5, §6, §7, §8, §9, §10

[10] = tested on: Pseudomonas stutzeri NCTC 10475; test: Nominal Inhibitory Concentration (spiral plater); conditions: 24 hrs BA 37° C.
Description: as §1, §2, §3, §4, §5, §6, §7, §8, §9, §10

[11] = tested on: Sphingomonas paucimobilis NCTC 11030; test: Nominal Inhibitory Concentration (spiral plater); conditions: 24 hrs BA 37° C.
Description: as §1, §2, §3, §4, §5, §6, §7, §8, §9, §10

[12] = tested on: Staphylococcus aureus ATCC 6538; test: Nominal Inhibitory Concentration (spiral plater); conditions: 24 hrs TSA 37° C.
Description: as §1, §2, §3, §4, §5, §6, §7, §8, §9, §10

[13] = tested on: Staphylococcus epidermidis ATCC 8853; test: Nominal Inhibitory Concentration (spiral plater); conditions: 24 hrs TSA 37° C.
Description: as §1, §2, §3, §4, §5, §6, §7, §8, §9, §10

[14] = tested on: Streptococcus mutans NCTC 11061; test: Nominal Inhibitory Concentration (spiral plater); conditions: 24 hrs BA 37° C.
Description: as §1, §2, §3, §4, §5, §6, §7, §8, §9, §10

[15] = tested on: Streptococcus oralis NCTC 11427; test: Nominal Inhibitory Concentration (spiral plater); conditions: 24 hrs BA 37° C.
Description: as §1, §2, §3, §4, §5, §6, §7, §8, §9, §10

[16] = tested on: Streptococcus sanguis NCTC 10904; test: Nominal Inhibitory Concentration (spiral plater); conditions: 24 hrs BA 37° C.
Description: as §1, §2, §3, §4, §5, §6, §7, §8, §9, §10

[17] = tested on: S. mutans, S. sanguis, S. aureus, C. albicans, Methicillin resistant S. aureus, P. acnes; test: Effective kill times of antimicrobial solutions; conditions: loperamide in 2.5% dimethyl sulphoxide; sampled at 30 seconds, 1, 2 and 5 minutes; data only in FIGS. 1-6
Description: A suitable broth culture of the test organism was prepared (see Table 3 below). Cultures were diluted (1:10) using a Ringer and Peptone solution. 30 ml volumes of loperamide made up in 2.5% dimethyl sulphoxide were prepared. The samples were then inoculated with 30 ml of the initial microorganism suspension, and at time intervals of 30 seconds, 1, 2 and 5 minutes, 1 ml of the sample was removed and added to 9 ml of Dey-Engley neutralizing broth. Two further serial dilutions were then prepared.
0.1 ml from the Dey-Engley broths and subsequent dilutions were spread plated and then incubated. See Table 3 below for the appropriate agar and incubation conditions.

Structure (SMILES): CN(C)C(=O)C(CCN1CCC(O)(c2ccc(Cl)cc2)CC1)(c1ccccc1)c1ccccc1 [Loperamide, 4-(p-chlorophenyl)-4-hydroxy-N,N-dimethyl-α,α-diphenyl-1-piperidinebutyramide]
- NIC [1]: 9 ppm
- NIC [2]: 39 ppm
- NIC [3]: >165 ppm
- NIC [4]: 7 ppm
- NIC [5]: 18 ppm
- NIC [6]: 9 ppm
- NIC [7]: 16 ppm
- NIC [8]: >165 ppm
- NIC [9]: 36 ppm
- NIC [10]: 21 ppm
- NIC [11]: 11 ppm
- NIC [12]: 34 ppm
- NIC [13]: 33 ppm
- NIC [14]: 30 ppm
- NIC [15]: 24 ppm
- NIC [16]: 27 ppm
- bactericidal properties (kill time) [17]: good bactericidal properties
